Results: PubChem BioAssay AID1996
Converted amounts (≈) assume the structure as drawn.

Conditions: buffer; pH 7.4; 200.0 µM

Row | SMILES | solubility kinetic [µg/mL]
1 | O=S(=O)(NC(=S)c1ccccc1)c1ccc(Cl)cc1 | > 46.8
2 | CC1CCCN(CCC(=O)c2ccc(Br)cc2)C1.Cl (centres undefined) | 33.8
3 | COc1cccc(CN(C)C(=O)Cc2c[nH]c3ccccc23)c1 | > 46.3
4 | CNC(=S)N(Cc1ccccc1)Cc1cccnc1 | 39 (≈ 144 µM)
5 | N#Cc1cnc(NOCc2ccc(Cl)cc2)nc1 | 7.4 (≈ 28.4 µM)
6 | COc1cc(OC)cc(C(=O)N[C@H](C(=O)Nc2c(C)n(C)n(-c3ccccc3)c2=O)C(C)C)c1 | > 70
7 | CC(=O)Nc1nnc(SCC(=O)NC2CC2)s1 | > 40.9
8 | CC(O)CNc1nc2c(c(=O)n(Cc3ccccc3)c(=O)n2C)n1C (centres undefined) | > 51.5
9 | Cc1c(Cl)cccc1NC(=O)NCc1ccccn1 | 38.5 (≈ 140 µM)
10 | Cc1ccc(C2C(=O)NC(=O)NC2=O)cc1 | 27.7 (≈ 127 µM)
11 | COc1ccc(CCNC(=O)c2noc(C)c2[N+](=O)[O-])cc1OC | > 50.3
12 | CCC(NC(=O)c1ccncc1)c1ccccc1 (centres undefined) | > 36
13 | Oc1ccc(Cl)cc1C=Nc1ccc2c3c(cccc13)CC2 | > 46.2
14 | CC(=O)CC1=NC(C)(C)Cc2ccccc21 | 17.2 (≈ 79.9 µM)
15 | O=C(CCNC(=O)c1ccccc1)Nc1ccc(S(=O)(=O)Nc2ncccn2)cc1 | > 63.8
16 | CCCNC(=O)c1ccc(COc2ccc(CCC)cc2OC)o1 | > 49.7
17 | COc1ccc(NS(=O)(=O)c2cc(NC(=O)COc3ccccc3)ccc2N2CCOCC2)cc1 | 3.1 (≈ 6.23 µM)
18 | Cc1c(N=Cc2cc3c(cc2[N+](=O)[O-])OCO3)cccc1[N+](=O)[O-] | 6.5 (≈ 19.7 µM)
19 | O=[N+]([O-])c1cc(C(F)(F)F)ccc1NC1CCN(Cc2ccccc2)CC1 | 2.6 (≈ 6.85 µM)
20 | CCOc1ccc2oc(C(=O)NC(C)(C)CC)c(C)c2c1 | 11.5 (≈ 39.7 µM)

Row | SMILES | solubility kinetic [µg/mL]
21 | CCc1ccc(NC(=O)c2cc(C)no2)cc1 | 14.3 (≈ 62.1 µM)
22 | Nc1nc(C23CC4CC(CC(C4)C2)C3)[nH]c(=O)n1 | > 36.9
23 | CC(=O)Nc1ccc(S(=O)(=O)NC2Cc3ccccc3C2)cc1 | 6.8 (≈ 20.6 µM)
24 | COc1ccc(NC(=O)CC2CC3CCC2C3)cc1S(=O)(=O)N1CCOCC1 (centres undefined) | > 61.3
25 | CCCCOc1ccc(C(=O)NCCc2ccccc2)cc1 | < 0.6
26 | COc1ccc([N+](=O)[O-])cc1NS(=O)(=O)c1cccc(C(=O)OC2CCOC2=O)c1 (centres undefined) | > 65.5
27 | Fc1ccc(SCCc2ccccn2)cc1 | 7.1 (≈ 30.4 µM)
28 | O=C(COc1cccnc1[N+](=O)[O-])Nc1ccc(F)cc1 | 11.5 (≈ 39.5 µM)
29 | Cn1c(N)c(C(=O)COC(=O)c2ccc3ccccc3c2)c(=O)n(C)c1=O | 3.8 (≈ 10.3 µM)
30 | COc1cccc(N(CC(=O)N2CCOCC2)S(C)(=O)=O)c1 | > 49.3
31 | CC1CN(C(=O)COC(=O)c2ccccc2O)CC(C)O1 (centres undefined) | 40.1 (≈ 137 µM)
32 | COC(=O)[C@H](Cc1ccccc1)NC(=O)c1ccc2ccccc2n1 | 23.6 (≈ 70.6 µM)
33 | OCCCNc1ncnc2oc(-c3ccccc3)c(-c3ccccc3)c12 | 17.5 (≈ 50.7 µM)
34 | O=C(CSc1cccc(C(F)(F)F)c1)Nc1ccc(N2CCOCC2)cc1 | 7.7 (≈ 19.4 µM)
35 | CC1CCCN(C(=O)CCNC(=O)c2ccccc2Cl)C1 (centres undefined) | > 46.3
36 | CCNC(=S)N/N=C(\C)c1cccc(OC)c1 | > 37.7
37 | Cc1ccc2c(c1C)NC(=O)CC(c1ccccc1O)=N2 | 0.6 (≈ 2.14 µM)
38 | CCC1CCC(N2CCN(c3cccc(OC)c3)CC2)CC1 (centres undefined) | 32.6 (≈ 108 µM)
39 | CC1CCN(C(=O)COC(=O)c2ccccc2C(=O)c2ccccc2)CC1 | > 54.8
40 | CC(=O)c1cccc(NC(=O)c2ccc3c(c2)CCCC3)c1 | 0.8 (≈ 2.73 µM)

Row | SMILES | solubility kinetic [µg/mL]
41 | Nc1cn(C2OC(CO)C(O)C2O)c(=O)[nH]c1=O (centres undefined) | > 38.9
42 | Cc1cccc(Nc2nc(C)nc3c2oc2ccccc23)c1.Cl | 1.1
43 | COC(=O)/N=C(/Cc1ccc(OC)cc1)c1ccc(OC)cc1 | 43.6 (≈ 139 µM)
44 | Cc1cc(C)cc(N2C(=O)CCN(Cc3ccccc3)C2=O)c1 | 38 (≈ 123 µM)
45 | CC(OC(=O)c1cc[n+]([O-])cc1)C(=O)NCc1ccccc1 (centres undefined) | > 45
46 | O=C(COC(=O)Cc1ccc(Cl)cc1)NCc1cccs1 | 35.1 (≈ 108 µM)
47 | CN1CCN(Cc2ccc3ccccc3c2)CC1 | 20.6 (≈ 85.7 µM)
48 | CNC(=O)c1ccc(NC(=O)CCc2c(C)noc2C)cc1 | > 45.2
49 | O=C(Nc1nc2cc3c(cc2s1)OCO3)c1ccc(N2C(=O)CCC2=O)cc1 | 1.1 (≈ 2.78 µM)
50 | O=C(COC(=O)Cc1ccccc1F)Nc1ccc(F)cc1F | 47.9 (≈ 148 µM)
51 | COc1ccc(NCC(=O)n2c(C)c(C)c3ccccc32)cc1OC | 4.9 (≈ 14.5 µM)
52 | CCc1cccc(NC(=O)COC(=O)/C=C/c2cccs2)c1 | 8.2 (≈ 26 µM)
53 | CCC(=O)Nc1ccc(OCC2CCCO2)cc1 (centres undefined) | 35.6 (≈ 143 µM)
54 | CCc1ccnc(NS(=O)(=O)c2ccc3c(c2)OCCO3)c1 | 7.2 (≈ 22.5 µM)
55 | Clc1ccc(N2CC2c2ccncc2)cc1 (centres undefined) | 32.6 (≈ 141 µM)
56 | Cc1cccc(NC(=S)NC2CC3C=CC2C3)c1 (centres undefined) | 6.2 (≈ 24 µM)
57 | CCN(CC(=O)Nc1ccc(NC(C)=O)cc1)S(=O)(=O)/C=C/c1ccccc1 | 9.6 (≈ 23.9 µM)
58 | O=C(CN1C(=O)NC2(CCCCC2)C1=O)Nc1ccc(F)cc1 | > 47.9
59 | CCOC(=O)c1ccc(NC(=O)C2C3CCCCC32)cc1 (centres undefined) | < 0.6
